Values quoted from earlier work as cited in patent publication US20230203322A1, “NON-ABLATIVE MULTI-LAYER COATINGS FOR BOAT PROPELLERS THAT PREVENT WATER-DERIVED DAMAGE, CORROSION, AND DETERIORATION FROM BIOLOGICAL CHEMICAL PROCESSES” (priority 2021, published 2023).

Tests used:
barnacles = conditions: copper release
[1] = tested on: biofouling animal organisms

Structure (SMILES) | minimal effective rate known to be effective for eradicating barnacles (barnacles) | effect on biofouling animal organisms ([1]; by itself) | synergistic enhancement of the biofouling anti-proliferating effect of copper and its alloys and salts ([1]; used in combination with the copper containing-substance)
[Cu] [copper] | 4 × 10^-6 micrograms per cm^2 per day | – | –
[O]=[Zn] [zinc oxide] | – | only a weak effect | up to 200 times
